Experimental data taken from patent US20210308057A1, “PEDIATRIC FORMULATION OF TYROSINE KINASE INHIBITORS” (IGIA Pharmaceuticals, Inc., priority 2020, published 2021).

What was measured:
[1] = Stock solution stability (bioanalytical stock solutions); format: physicochemical; settings: polypropylene container
[2] = Nonclinical PK/PD study of low-dose dasatinib in NS and NSML mice for hypertrophic cardiomyopathy; settings: mouse, in vivo, doses 0.05 mg/kg to 0.5 mg/kg, based on exposure-response relationship, read-out: suggested potential target AUC for cardiac rescue
Description: A nonclinical study in mice was conducted to determine the PK and PD properties of a low-dose treatment of dasatinib in NS and NSML mice for the treatment of Hypertrophic cardiomyopathy (HCM). The goal was to establish in the same mouse model concurrent PK data and to correlate that with the endpoints of HCM using qPCR and immunoblotting. PK properties obtained from these mice were determined by Kana Mizuno and Alexander A. Vinks at Cincinnati Children's Hospital Medical Center. Dasatinib PK profiles and exposures (expressed as area under the concentration time curve; AUC) at doses ranging from 0.05 mg/kg to 0.5 mg/kg were estimated in NS and NSML mice. Based on the exposure-response relationship, potential target exposures to protect cardiac function were identified.

SMILES	Stock Stability ([1]; storage temperature 22° C.) [h]	Stock Stability ([1]; storage temperature −20° C.) [h]	AUC [2] [ng·h/mL]
[2H]C1([2H])N(CCO)C([2H])([2H])C([2H])([2H])N(c2cc(Nc3ncc(C(=O)Nc4c(C)cccc4Cl)s3)nc(C)n2)C1([2H])[2H] [Dasatinib-D8]	25	1010	
Cc1nc(Nc2ncc(C(=O)Nc3c(C)cccc3Cl)s2)cc(N2CCN(CCO)CC2)n1 [Dasatinib]	25	1010	12 to 24
